Test results published in ChEMBL document CHEMBL5512637, “Development of Membrane-Targeting Fluorescent 2-Phenyl-1H-phenanthro[9,10-d]imidazole-Antimicrobial Peptide Mimic Conjugates against Methicillin-Resistant Staphylococcus aureus” (J Med Chem, 2024).
Activity calls are given as the source filed them. The calls are words filed in the database; no cut-off is given here.

Tests used:
[1] = system: Staphylococcus aureus; test: Disruption of cell membrane in methicillin-resistant Staphylococcus aureus clinical isolate M-4 assessed as increase in red fluorescence at 4 ug/ml incubated for 4 hrs by DAPI/PI staining based laser confocal microscopy; assay type: functional, organism-based; conditions: dose 4.0 µg/ml
[2] = system: Staphylococcus aureus; test: Bactericidal activity against methicillin-resistant Staphylococcus aureus clinical isolate M-4 at 8 times MIC incubated for 4 hrs by time kill assay relative to control; assay type: functional
[3] = system: Staphylococcus aureus; test: Disruption of cell membrane in methicillin-resistant Staphylococcus aureus clinical isolate M-4 assessed as protein leakage at 1 to 8 times MIC incubated for 4 hrs by BCA assay; assay type: functional, organism-based
[4] = system: Staphylococcus aureus; test: Antibacterial activity against methicillin-resistant Staphylococcus aureus clinical isolate M-4 upto 128 ug/ml incubated for 16 to 18 hrs in presence of phosphatidylglycerol by broth dilution method; assay type: functional, organism-based; conditions: dose <= 128.0 µg/ml, time 16-18 hrs
[5] = system: Staphylococcus aureus; test: Antibacterial activity against methicillin-resistant Staphylococcus aureus clinical isolate M-5 incubated for 16 to 18 hrs CLSI based by microbroth dilution assay; assay type: functional; conditions: time 16-18 hrs
[6] = system: Staphylococcus aureus; test: Disruption of cell membrane in methicillin-resistant Staphylococcus aureus clinical isolate M-4 assessed as DNA leakage at 1 to 8 times MIC incubated for 4 hrs by microspectrophotometry; assay type: functional, organism-based
[7] = system: Staphylococcus aureus; test: Bactericidal activity against Staphylococcus aureus ATCC 29213 by time kill assay; assay type: functional, organism-based
[8] = system: Staphylococcus aureus; test: Antibacterial activity against Staphylococcus aureus ATCC 29213 at 1 ug/ml in presence of exogenous DNA; assay type: functional, organism-based; conditions: dose 1.0 µg/ml
[9] = Toxicity in KM mouse assessed as change in RBC count at 20 mg/kg, sc measured after 24 hrs; assay type: organism-based, Erythrocyte; conditions: in vivo
[10] = system: Staphylococcus aureus; test: Disruption of cell membrane in methicillin-resistant Staphylococcus aureus clinical isolate M-4 assessed as increase in red fluorescence incubated for 2 hrs by SYTO9/PI staining based flow cytometry; assay type: functional, organism-based; conditions: dose 4-64 µg/ml
[11] = Toxicity in KM mouse assessed as red swollen appearance of skin at administration site at 40 to 80 mg/kg, sc measured for 24 hrs; assay type: organism-based; conditions: in vivo, dose 40-80 mg/kg
[12] = system: Staphylococcus aureus; test: Antibacterial activity against methicillin-resistant Staphylococcus aureus clinical isolate M-4 infected in KM mouse assessed as reduction in skin inflammation at 10 mg/kg, sc measured after 24 hrs by H and E staining based analysis; assay type: functional, organism-based
[13] = system: Staphylococcus aureus; test: Induction of resistance development in Staphylococcus aureus ATCC 29213 at MIC measured after 20 passages; assay type: functional
[14] = Toxicity in KM mouse assessed as change in hemoglobin level at 20 mg/kg, sc measured after 24 hrs; assay type: organism-based; conditions: in vivo
[15] = system: Staphylococcus aureus; test: Bactericidal activity against methicillin-resistant Staphylococcus aureus clinical isolate M-4 by time kill assay; assay type: functional, organism-based
[16] = Toxicity in KM mouse assessed as change in albumin level at 20 mg/kg, sc measured after 24 hrs; assay type: organism-based; conditions: in vivo
[17] = system: Staphylococcus aureus; test: Antibacterial activity against methicillin-resistant Staphylococcus aureus clinical isolate M-4 incubated for 16 to 18 hrs CLSI based by microbroth dilution assay; assay type: functional; conditions: time 16-18 hrs
[18] = system: Staphylococcus aureus; test: Bactericidal activity against methicillin-resistant Staphylococcus aureus clinical isolate M-4 at 4 to 8 times MIC by time kill assay; assay type: functional, organism-based; conditions: TDE = time-dependent effect
[19] = system: Staphylococcus aureus; test: Bactericidal activity against methicillin-resistant Staphylococcus aureus clinical isolate M-4 at 4 times MIC incubated for 6 hrs by time kill assay relative to control; assay type: functional
[20] = system: Staphylococcus aureus; test: Antibacterial activity against methicillin-resistant Staphylococcus aureus clinical isolate M-4 upto 128 ug/ml incubated for 16 to 18 hrs in presence of phosphatidylethanolamine by broth dilution method; assay type: functional, organism-based; conditions: dose <= 128.0 µg/ml, time 16-18 hrs
[21] = Toxicity in KM mouse assessed as red swollen appearance of skin at administration site at 5 to 20 mg/kg, sc measured for 24 hrs; assay type: organism-based; conditions: in vivo, dose 5-20 mg/kg
[22] = system: Staphylococcus aureus; test: Antibacterial activity against methicillin-resistant Staphylococcus aureus clinical isolate M-3 incubated for 16 to 18 hrs CLSI based by microbroth dilution assay; assay type: functional; conditions: time 16-18 hrs
[23] = Toxicity in KM mouse assessed as change in hematocrit level at 20 mg/kg, sc measured after 24 hrs; assay type: organism-based; conditions: in vivo
[24] = system: Staphylococcus aureus; test: Disruption of cell membrane in methicillin-resistant Staphylococcus aureus clinical isolate M-4 assessed as fold increase in intracellular ROS level at 32 ug/ml incubated for 1 hr by DCFH-DA dye based analysis relative to control; assay type: functional; conditions: dose 32 µg/ml
[25] = system: Staphylococcus aureus; test: Bactericidal activity against Staphylococcus aureus ATCC 29213 at 4 to 8 times MIC by time kill assay; assay type: functional, organism-based; conditions: TDE = time-dependent effect
[26] = Toxicity in KM mouse assessed as histological abnormality in spleen at 20 mg/kg, sc measured after 24 hrs by H and E staining based analysis; assay type: organism-based; conditions: in vivo
[27] = system: Staphylococcus aureus; test: Antibacterial activity against methicillin-resistant Staphylococcus aureus clinical isolate M-4 infected in KM mouse assessed as decrease in erythema in subcutaneous tissue at 5 to 10 mg/kg, sc measured after 24 hrs by H and E staining based analysis; assay type: functional, organism-based; conditions: dose 5-10 mg/kg
[28] = Toxicity in KM mouse infected with methicillin-resistant Staphylococcus aureus clinical isolate M-4 assessed as histopathological abnormality in heart at 5 to 10 mg/kg, sc measured after 24 hrs by H and E staining based analysis; assay type: organism-based; conditions: in vivo, dose 5-10 mg/kg
[29] = system: Staphylococcus aureus; test: Disruption of cell membrane in methicillin-resistant Staphylococcus aureus clinical isolate M-4 assessed as fold increase in fluorescence intensity at 32 ug/ml measured after 20 mins by DiSC3(5) dye based analysis relative to control; assay type: functional; conditions: dose 32 µg/ml
[30] = Cytotoxicity against human L02 cells assessed as cell survival at 16 ug/ml by MTT assay relative to control; assay type: toxicity, cell-based; conditions: at 16 µg/mL, read-out: Survival
[31] = system: Staphylococcus aureus; test: Antibacterial activity against methicillin-resistant Staphylococcus aureus clinical isolate M-2 incubated for 16 to 18 hrs CLSI based by microbroth dilution assay; assay type: functional; conditions: time 16-18 hrs
[32] = system: Staphylococcus aureus; test: Disruption of cell membrane in methicillin-resistant Staphylococcus aureus clinical isolate M-4 assessed as decrease in blue fluorescence at 4 ug/ml incubated for 4 hrs by DAPI/PI staining based laser confocal microscopy; assay type: functional, organism-based; conditions: dose 4.0 µg/ml
[33] = system: Staphylococcus aureus; test: Disruption of cell membrane in methicillin-resistant Staphylococcus aureus clinical isolate M-4 assessed as rough cell membrane at 8 times MIC incubated for 1 hr by SEM analysis; assay type: functional, organism-based
[34] = system: Staphylococcus aureus; test: Disruption of cell membrane in methicillin-resistant Staphylococcus aureus clinical isolate M-4 assessed as increase in intracellular ROS level incubated for 1 hr by DCFH-DA dye based analysis; assay type: functional, organism-based; conditions: dose 1-32 µg/ml
[35] = Toxicity in KM mouse assessed as histological abnormality in liver at 20 mg/kg, sc measured after 24 hrs by H and E staining based analysis; assay type: organism-based; conditions: in vivo
[36] = system: Staphylococcus aureus; test: Bactericidal activity against Staphylococcus aureus ATCC 29213 assessed as fold increase in fluorescence intensity at MIC incubated for 180 mins relative to control; assay type: functional; conditions: 3 h
[37] = Stability in sheep plasma at MBC measured for 6 hrs; assay type: ADME, cell-free, Ovis aries
[38] = Toxicity in KM mouse infected with methicillin-resistant Staphylococcus aureus clinical isolate M-4 assessed as histopathological abnormality in liver at 5 to 10 mg/kg, sc measured after 24 hrs by H and E staining based analysis; assay type: organism-based; conditions: in vivo, dose 5-10 mg/kg

SMILES: CCCCCNC(=O)C[N+](C)(C)CCCCn1c(-c2ccc(N(C)C)cc2)nc2c3ccccc3c3ccccc3c21.[Br-]
- Activity [1]: Active
- Activity [2]: 100%
- Activity [3]: Active
- Activity [4]: inactive
- MIC [5]: 2 µg/mL
- Activity [6]: Active
- Activity [7]: Dose-Dependent Effect
- Activity [8]: Active
- Activity [9]: Non-Toxic
- Activity [10]: Dose-Dependent Effect
- Activity [11]: Toxic
- Activity [12]: Active
- Activity [13]: inactive
- Activity [14]: Non-Toxic
- Activity [15]: Dose-Dependent Effect
- Activity [16]: Non-Toxic
- MIC [17]: 0.5 µg/mL
- Activity [18]: Tde
- Activity [19]: 100%
- Activity [20]: Active
- Activity [21]: Non-Toxic
- MIC [22]: 1 µg/mL
- Activity [23]: Non-Toxic
- fold change (FC) [24]: ~3
- Activity [25]: Tde
- Activity [26]: Non-Toxic
- Activity [27]: Active
- Activity [28]: Non-Toxic
- fold change (FC) [29]: ~5
- viability at 16 ug/ml [30]: 100%
- MIC [31]: 1 µg/mL
- Activity [32]: Active
- Activity [33]: Active
- Activity [34]: Dose-Dependent Effect
- Activity [35]: Non-Toxic
- fold change (FC) [36]: ~1.9
- Stability [37]: Stable
- Activity [38]: Non-Toxic
